{"source": "paper PMC8752837", "about": "“Structural basis of BAK activation in mitochondrial apoptosis initiation” (Nature Communications, 2022)", "target": "T1, GST-BAK (Homo sapiens, UniProt Q16611)", "T1 construct": "made in house", "T1 sequence (Q16611 1-211)": "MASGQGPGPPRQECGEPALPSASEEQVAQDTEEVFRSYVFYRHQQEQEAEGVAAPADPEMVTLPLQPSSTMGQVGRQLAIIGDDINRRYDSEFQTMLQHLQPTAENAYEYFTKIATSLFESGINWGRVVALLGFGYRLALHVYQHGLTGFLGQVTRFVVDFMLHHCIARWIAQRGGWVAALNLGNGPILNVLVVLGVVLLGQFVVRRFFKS", "experiment": "Competitive fluorescence polarization assay (displacement of BID BH3 SAHB-F)", "format": "binding", "settings": "competitive FP", "description": "We also tested the monosubstituted peptides in competitive fluorescence polarization (FP) binding assays, which measure displacement from GST-BAK of BID BH3 stabilized alpha helix of BCL-2 proteins (SAHB) C-terminally tagged with fluorescein and thus informs on peptide binding affinity.\nWe carried out fluorescence polarization assays, measuring the displacement of the fluorescent peptide BID BH3 SAHB-F from GST-BAK, in 384-well Greiner black polystyrene plates with flat bottom (Sigma-Aldrich). Master mix consisted of 50 mM Tris-HCl pH 7.5, 50 mM KCl, 0.1 mg/mL BSA, 2 mM DTT, 0.005% Tween-20, 10 nM BID BH3 SAHB-F, and 1 µM GST-BAK. We pin transferred peptides using Biomek FX (Beckman Coulter Life Sciences, IN) to achieve final concentration of 500−0.2 µM in 20 µL final volume. We gently centrifuged plates to remove air bubbles for 1 min at 1000 rpm, and incubated them for 60 min at RT. […] Free peptide controls in each plate consisted of only BID BH3 SAHB-F and bound peptide controls containing BID BH3 SAHB-F + GST-BAK. We derived Z’-values using the equation [1 − 3(stdev^L + stdev^H)]/(average^H − average^L), where L is the free peptide control and H is the bound peptide control. […] We processed and visualized data using the software Robust Investigation of Screening Experiments (RISE) developed in house in the Pipeline Pilot platform (Accelrys, v.8.5.0). We performed at least three independent dose-response experiments for each peptide. We estimated IC50 values in RISE and GraphPad Prism v.8.0a.", "note": "Like-named read-outs stand apart in the source and are kept apart here.", "data": [{"compound": "CC[C@H](C)[C@H](NC(=O)[C@H](CO)NC(=O)[C@H](CCCNC(=N)N)NC(=O)[C@H](CC(=O)O)NC(=O)[C@H](CCSC)NC(=O)[C@H](CO)NC(=O)[C@H](CC(=O)O)NC(=O)CNC(=O)[C@@H](NC(=O)[C@H](CCC(N)=O)NC(=O)[C@H](C)NC(=O)[C@H](CC(C)C)NC(=O)[C@H](Cc1c[nH]cn1)NC(=O)[C@H](CCCNC(=N)N)NC(=O)[C@H](C)NC(=O)[C@@H](NC(=O)[C@H](CC(N)=O)NC(=O)[C@H](CCCNC(=N)N)NC(=O)[C@@H](NC(=O)[C@@H](NC(=O)[C@H](CC(=O)O)NC(=O)[C@H](CCC(=O)O)NC(C)=O)[C@@H](C)CC)[C@@H](C)CC)[C@@H](C)CC)C(C)C)C(N)=O", "note": "[WT BID BH3, reference compound]", "values": [{"measurement": "IC50", "setting": "Experiment-1", "value": 12.73, "unit": "µM"}, {"measurement": "IC50", "setting": "Experiment-2", "value": 6.926, "unit": "µM"}, {"measurement": "IC50", "setting": "Experiment-3", "value": 15.45, "unit": "µM"}, {"measurement": "IC50", "setting": "Experiment-4", "value": 8.804, "unit": "µM"}, {"measurement": "IC50", "setting": "Experiment-5", "value": 11, "unit": "µM"}, {"measurement": "IC50", "setting": "Experiment-6", "value": 9.271, "unit": "µM"}, {"measurement": "IC50", "setting": "Experiment-7", "value": 11.57, "unit": "µM"}, {"measurement": "IC50", "setting": "Experiment-9", "value": 22.17, "unit": "µM"}, {"measurement": "IC50", "setting": "mean of the experiments (replicated 4-9 times), read-out: IC50 Mean", "value": 12.2, "unit": "µM"}]}]}
